Structures can show the parent of a compound that is named as a salt.

Holding throughout (assay): antifungal susceptibility testing (MIC, MFC), extended spectrum
For experiment [1], the system named is Candida albicans A39. The format is cell-based. The note with it: Candida albicans A39. The source says:
(§1) Antifungal susceptibility testing for compounds set forth in Examples 1-20 is discussed hereinbelow. The fungi that were employed included two reference strains, C. neoformans var. neoformans H99 and C. albicans A39 and the following clinical isolates: (1) two strains of fluconazole-resistant C. neoformans var. neoformans (135.95 and 114.96); (2) two strains of C. neoformans var. gattii (119.95 and 114.95); (3) two strains of fluconazole-resistant C. albicans (102.96 and 103.96); and (4) one strain each of Torulopsis glabrata (142.91), Candida parapsilosis (111.96), Candida krusei (132.91), C. tropicalis (110.96), Candida lusitaniae (111.92), Fusarium solani (152.89), Aspergillus fumigatus (168.95), and Aspergillus flavus (112.96). Antifungal susceptibility testing was performed using an RPMI-1640 medium (Sigma Chemical Co., St. Louis, Mo.) with glutamine, without sodium bicarbonate, and buffered at pH 7.0 with 0.165 M morpholine-propanesulfonic acid (MOPS).
(§2) In vitro susceptibility testing in the form of Minimum Inhibitory Concentration (MIC) experiments were performed using the broth macrodilution method according to the recommendations of the National Committee for Clinical Laboratory Standards (see 1995 manual). The only difference compared to the standardized procedure was the choice of drug dilutions ranging from 100 to 0.09 μg/ml. Briefly, this procedure specifies an inoculum grown at 35° C. and adjusted to a concentration of 0.5-2.5×10^3 CFU/ml with an incubation of the test performed at 35° C. and reading at 48 hours for all yeasts except for C. neoformans which is interpreted at 72 hr.
(§3) Minimum Fungicidal Concentration (MFC) experiments were adapted from a method by McGinnis (McGinnis, M. R., (1980) "Susceptibility testing and bioassay procedure", p. 431, Academic Press, Inc., New York). Briefly, 10 μl aliquots from tubes with growth inhibition were plated onto Sabouraud agar plates. The lowest drug concentration that yielded three or fewer yeasts colonies was recorded as the MFC.
Antifungal susceptibility testing for compounds set forth in Examples 21-28 is discussed hereinbelow. […]
(§4) Minimum Fungicidal Concentration (MFC) experiments were adapted from a method by McGinnis (McGinnis, M. R., (1980) "Susceptibility testing and bioassay procedure", p.431, Academic Press, Inc., New York). […] The lowest drug concentration that yielded 3 or fewer yeasts colonies was recorded as the MFC. […]

Experiment [2] deals with C. albicans 102.96. The format is cell-based, Candida albicans. The note with it: Candida albicans, C. albicans 102.96, fluconazole-resistant.
Source text: as §1, §2, §3
(§5) Antifungal susceptibility testing for compounds set forth in Examples 21-28 is discussed hereinbelow. The fungi that were employed included two quality control reference strains, C. neoformans var. neoformansH99 and C. albicans A39 and the following clinical isolates: (1) four strains of C. neoformans var. neoformans (167.95; 135.95; 114.96; and 133.95) of which three were fluconazole-resistant>64 μg/ml (135.95; 114.96; and 133.95); (2) two strains of C. neoformans var. gattii (119.95 and 114.95); (3) two strains of fluconazole-resistant>64 μg/ml C. albicans (102.96 and 103.96); and (4) one strain each of C. glabrata (142.91), Candida parapsilosis (111.96), Candida krusei (132.91), C. tropicalis (110.96), Candida lusitaniae (111.92), Fusarium solani (152.89), Aspergillus fumigatus (168.95), Rhizopus arrhizus (117.89), Paecilomyces lilacinus (137.90), and Aspergillus flavus (112.96). Antifungal susceptibility testing was performed using an RPMI-1640 medium (Sigma Chemical Co., St. Louis, Mo.) with glutamine, without sodium bicarbonate, and buffered at pH 7.0 with 0.165 M morpholinepropanesulfonic acid (MOPS).
(§6) Minimum Fungicidal Concentration (MFC) experiments were adapted from a method by McGinnis (McGinnis, M. R., (1980) "Susceptibility testing and bioassay procedure", p.431, Academic Press, Inc., New York). Briefly, 10 μl aliquots from tubes with growth inhibition were plated onto Sabouraud agar plates. The lowest drug concentration that yielded 3 or fewer yeasts colonies was recorded as the MFC. Several drugs were also rescreened with a subculture of 100 μl aliquots from tubes with no growth and there was no change in MFC.

The subject of experiment [3] is C. albicans 103.96. It counts as cell-based, Candida albicans. The conditions noted are these: Candida albicans, C. albicans 103.96, fluconazole-resistant.
Source text: as §1, §2, §3, §5, §6

Experiment [4] deals with C. parapsilosis 111.96. The format is cell-based, Candida parapsilosis. The note with it: Lodderomyces parapsilosis. Here is the method:
Antifungal susceptibility testing for compounds set forth in Examples 1-20 is discussed hereinbelow. […]
In vitro susceptibility testing in the form of Minimum Inhibitory Concentration (MIC) experiments were performed using the broth macrodilution method according to the recommendations of the National Committee for Clinical Laboratory Standards (see 1995 manual). […] Briefly, this procedure specifies an inoculum grown at 35° C. and adjusted to a concentration of 0.5-2.5×10^3 CFU/ml with an incubation of the test performed at 35° C. and reading at 48 hours for all yeasts except for C. neoformans which is interpreted at 72 hr.
Minimum Fungicidal Concentration (MFC) experiments were adapted from a method by McGinnis (McGinnis, M. R., (1980) "Susceptibility testing and bioassay procedure", p. 431, Academic Press, Inc., New York). […] The lowest drug concentration that yielded three or fewer yeasts colonies was recorded as the MFC. […]
as §4

With `CC(C)NC(=N)c1ccc2nc(-c3ccc4c(c3)Cc3cc(-c5nc6ccc(C(=N)NC(C)C)cc6[nH]5)ccc3-4)[nH]c2c1` [Compound 57, 2,7-Bis[2-(5-N-isopropylamidino)benzimidazoyl]fluorene hydrochloride], the minimal fungicidal concentration (MFC) (usually the lowest tested concentration that kills the fungus rather than only halting it) in experiment [1] was 1.56 µg/mL; in experiment [2] it was 12.5 µg/mL; in experiment [3], 12.5 µg/mL; in experiment [4], 0.78 µg/mL. The MIC was found to be 0.78 µg/mL in experiment [1] (48 hours, read-out: MIC80); 1.56 µg/mL in experiment [2] (48 hours, read-out: MIC80); 1.56 µg/mL in experiment [3] (48 hours, read-out: MIC80); 0.78 µg/mL in experiment [4] (48 hours, read-out: MIC80).

Source of the values: patent publication US6326395A, “Antifungal activity of dicationic molecules” (priority 1999, dated 2001).
